For experiment [1], the system named is Candida albicans. Briefly: Antifungal activity against Candida albicans MTCC 277 after 48 hrs by NCCLS protocol based method. The experiment is classed as functional. The following applies: MTCC 277, 48 h.
In experiment [2] the test system is Escherichia coli. In words: Antimicrobial activity against Escherichia coli ATCC 25922 after 48 hrs by NCCLS protocol based method. The class given is functional. Particulars: ATCC 25922, 48 h.
The test system of experiment [3] is Bacillus subtilis. Briefly: Antimicrobial activity against Bacillus subtilis NCIM 2250 after 48 hrs by NCCLS protocol based method. The experiment is classed as functional. The following applies: NCIM 2250, 48 h.
A further experiment deals with Aspergillus niger. Briefly: Antifungal activity against Aspergillus niger NCIM 545 after 48 hrs by NCCLS protocol based method. The following applies: NCIM 545, 48 h. The class given is functional.
The next experiment concerns Salmonella typhimurium. In words: Antimicrobial activity against Salmonella typhimurium. The experiment is classed as functional, Salmonella enterica subsp. enterica serovar Typhimurium. The following applies: Salmonella enterica.
The subject of experiment [4] is Bacillus subtilis. Briefly: Antimicrobial activity against Bacillus subtilis. The experiment is classed as functional.
A further experiment has as its system PANC-1. Briefly: Growth inhibition of human PANC1 cells. The class given is functional.
A further experiment concerns MDA-MB-231. Briefly: Growth inhibition of human MDA-MB-231 cells. The class given is functional.
The test system of experiment [5] is Escherichia coli. Briefly: Antimicrobial activity against Escherichia coli. The class given is functional.
The next experiment has as its system SiHa. Briefly: Growth inhibition of human SiHa cells. The experiment is classed as functional.
The next experiment deals with Micrococcus luteus. Briefly: Antibacterial activity against Micrococcus luteus. The experiment is classed as functional.
The next experiment deals with Priestia megaterium. In words: Antimicrobial activity against Bacillus megaterium. The class given is functional.
A further experiment deals with Streptococcus agalactiae. In words: Antimicrobial activity against Streptococcus agalactiae 55118 assessed as zone of inhibition at 100 ug/ml after 24 hrs by disc diffusion method. The class given is functional. Particulars: Streptococcus agalactiae, 55118, 24 h; read-out: IZ. (In general: Agar diffusion results depend on both activity and mobility in agar.)
The next experiment deals with Klebsiella pneumoniae. Briefly: Antimicrobial activity against Klebsiella pneumoniae ATCC 700603 assessed as zone of inhibition at 100 ug/ml after 24 hrs by disc diffusion method. The experiment is classed as functional. The following applies: ATCC 700603, 24 h, read-out: IZ.
Another experiment has as its system Staphylococcus aureus. In words: Antimicrobial activity against Staphylococcus aureus ATCC 25923 assessed as zone of inhibition at 100 ug/ml after 24 hrs by disc diffusion method. The experiment is classed as functional. Particulars: ATCC 25923, 24 h, read-out: IZ.
The subject of another experiment is Candida tropicalis. In words: Antifungal activity against Candida tropicalis. The class given is functional.
For a further experiment, the system named is Nakaseomyces glabratus. In words: Antifungal activity against Candida glabrata. The class given is functional.
Experiment [6] deals with Candida albicans. Briefly: Antifungal activity against Candida albicans. The experiment is classed as functional.

Molecules are shown by their SMILES. Values after ≈ are worked out from the molar mass of the structure shown.

Turning to `CCOC(=O)C(C#N)C(c1cc2c(OC)cccc2n2nnnc12)P(=O)(OCC)OCC` (stereo unspecified), the MIC in the experiment on Candida albicans [1], against Escherichia coli [2], in the experiment on Bacillus subtilis [3] and with Aspergillus niger was 10 to 20 µg/mL (≈ 21.7 to 43.3 µM) throughout.
With `COc1cc(-n2nnnc2SCCC(=O)N2CCN(c3cc4c(cc3F)c(=O)c(C(=O)O)cn4C3CC3)CC2)cc(OC)c1OC`, the MIC in the experiment on Salmonella typhimurium, against Bacillus subtilis [4], in the experiment on Escherichia coli [5], against Micrococcus luteus and against Priestia megaterium was 15.6 µg/mL (≈ 23.9 µM) throughout. Also, the 50% growth inhibitory concentration (GI50) in the experiment on PANC-1, in the experiment on MDA-MB-231 and in the experiment with SiHa was at most 1000 nM throughout.
With `CC/C(=C(\c1ccccc1)c1ccc(OCCN(C)C)cc1)c1ccccc1` [TAMOXIFEN], the GI50 with PANC-1, with MDA-MB-231 and in the experiment with SiHa was 120 to 240 nM in each case.
For `CCOC(=O)C(C#N)C(c1cc2ccc(OC)cc2n2nnnc12)P(=O)(OCC)OCC` (stereo unspecified), the MIC in the experiment with Candida albicans [1], against Escherichia coli [2], with Bacillus subtilis [3] and in the experiment on Aspergillus niger was 10 µg/mL (≈ 21.7 µM) throughout.
With `CCCn1nnnc1Sc1c(OC)nc(N)nc1OC`, the zone of inhibition at 100 µg/mL in the experiment with Streptococcus agalactiae, in the experiment on Klebsiella pneumoniae and in the experiment on Staphylococcus aureus was 24 mm in each case.
Take `CCOC(=O)C(C#N)C(c1cc2c(C)cccc2n2nnnc12)P(=O)(OCC)OCC` (stereo unspecified): the minimum inhibitory concentration (MIC) in the experiment on Candida albicans [1], in the experiment on Escherichia coli [2], in the experiment on Bacillus subtilis [3] and with Aspergillus niger was 10 to 20 µg/mL (≈ 22.5 to 44.9 µM) in each case.
For `CCOC(=O)C(C#N)C(c1cc2cc(OC)ccc2n2nnnc12)P(=O)(OCC)OCC` (stereo unspecified), the MIC against Candida albicans [1], in the experiment with Escherichia coli [2], against Bacillus subtilis [3] and in the experiment with Aspergillus niger was 10 to 20 µg/mL (≈ 21.7 to 43.3 µM) each time.
Turning to `CCn1cc(C(=O)O)c(=O)c2cnc(N3CCNCC3)nc21` [PIPEMIDIC ACID], the MIC against Salmonella typhimurium, against Bacillus subtilis [4], in the experiment on Escherichia coli [5], against Micrococcus luteus and in the experiment on Priestia megaterium was 31.2 µg/mL (≈ 103 µM) each time.
In the case of `CCn1nnnc1SCCC(=O)N1CCN(c2cc3c(cc2F)c(=O)c(C(=O)O)cn3C2CC2)CC1`, the MIC with Salmonella typhimurium, in the experiment with Bacillus subtilis [4], against Escherichia coli [5], in the experiment on Micrococcus luteus and in the experiment on Priestia megaterium was 15.6 µg/mL (≈ 30.3 µM) throughout. Besides, the concentration for 50% growth inhibition (GI50) with PANC-1, in the experiment on MDA-MB-231 and with SiHa was at most 1000 nM throughout.
Consider `CCOC(=O)C(C#N)C(c1cc2ccc(CC)cc2n2nnnc12)P(=O)(OCC)OCC` (stereo unspecified), for which the MIC against Candida albicans [1], in the experiment with Escherichia coli [2], against Bacillus subtilis [3] and in the experiment on Aspergillus niger was 10 to 20 µg/mL (≈ 21.8 to 43.5 µM) in each case.
For `Clc1ccc(COC(Cn2ccnc2)c2ccc(Cl)cc2Cl)c(Cl)c1` (stereo unspecified) [MICONAZOLE], the MIC in the experiment on Candida tropicalis, in the experiment on Nakaseomyces glabratus and in the experiment with Candida albicans [6] was 12.5 to 800 µg/mL (≈ 30 to 1920 µM) in each case.
`CC[C@H]1OC(=O)[C@H](C)[C@@H](O[C@H]2C[C@@](C)(OC)[C@@H](O)[C@H](C)O2)[C@H](C)[C@@H](O[C@@H]2O[C@H](C)C[C@H](N(C)C)[C@H]2O)[C@](C)(O)C[C@@H](C)C(=O)[C@H](C)[C@@H](O)[C@]1(C)O` [ERYTHROMYCIN]: the zone of inhibition at 100 µg/mL in the experiment with Streptococcus agalactiae, in the experiment with Klebsiella pneumoniae and in the experiment with Staphylococcus aureus was 10 to 24 mm throughout.
For `CCCCCCn1nnnc1Sc1c(OC)nc(N)nc1OC`, the zone of inhibition at 100 µg/mL with Streptococcus agalactiae, in the experiment on Klebsiella pneumoniae and in the experiment with Staphylococcus aureus was 10 to 24 mm in each case.

For the origin of these results see ChEMBL document CHEMBL4342421, “Current scenario of tetrazole hybrids for antibacterial activity” (Eur J Med Chem, 2019).
